A short description of the series: Volume average particle size (D50) by laser diffraction. Format: physicochemical. As to conditions: amorphous Compound 14 (spray dried), dispersed in 0.2% Aerosol OT aqueous solution, ultrasonic 30 seconds. From the text: The volume average particle size (D50) can usually be measured by dispersing the measurement sample in a solvent such as water or ethanol and measuring the particle size distribution by a laser diffraction method. The measurement sample may be dispersed in a solvent by irradiation of ultrasonic waves or the like. The particle size distribution can be measured by a particle size distribution measuring device (for example, Shimadzu laser diffraction type particle size distribution measuring device SALD-2200). The volume average particle size (D50) can be determined from the obtained particle size distribution result. A commercially available software (for example, Shimadzu WingSALD-2200 version 1.02) can be used for data collection and analysis.
A volume average particle size (D50) of the obtained amorphous Compound 14 was measured with a Shimadzu laser diffraction type particle size distribution measuring device SALD-2200 using a dispersion obtained by adding about 2 mg of a sample to a 0.2% Aerosol OT aqueous solution and irradiating the solution with ultrasonic waves for 30 seconds for dispersion. Shimadzu WingSALD-2200 version 1.02 software was used for data collection and analysis. […] The volume average particle size (D50) of amorphous Compound 14 obtained from the particle size distribution was 2.949 μm.

As for `N#Cc1cc(-c2nc3c(O)ncnc3s2)ccc1Oc1ccccc1` [Compound 14, 2-(3-Cyano-4-phenoxyphenyl)-7-hydroxythiazolo(5,4-d]pyrimidine], the “volume average particle size (D50)” value is given as 2.949 μm.

Source of the values: patent publication US20220323442A1, “ENTERIC-COATED PREPARATION COMPRISING XANTHINE OXIDASE INHIBITOR” (Nippon Chemiphar Co., Ltd., priority 2019, published 2022).
